Experiments:
Assay in all cases: relative viability (nuclei count vs DMSO), 5 days (fraction); higher = more cells survive
201T = tested on: 201T
Outline: (§1)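 Five library-drug doses in √10 steps were combined with a fixed anchor-drug dose, or a single drug was given alone, by pin tool to lung cancer cell lines in 1536-well plates the day after seeding. Nuclei were stained and counted after 5 days. Relative viability is the nuclei count in treated wells over that in vehicle wells, taken as the median of duplicate plates.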

BEN = tested on: BEN
Outline: as §1

EMC-BAC-2 = tested on: EMC-BAC-2
Outline: as §1

HARA = tested on: HARA
Outline: as §1

HCC-44 = tested on: HCC-44
Outline: as §1

LCLC-103H = tested on: LCLC-103H
Outline: as §1

LOU-NH91 = tested on: LOU-NH91
Outline: as §1

NCI-H1395 = tested on: NCI-H1395
Outline: as §1

NCI-H1666 = tested on: NCI-H1666
Outline: as §1

NCI-H1993 = tested on: NCI-H1993
Outline: as §1

NCI-H2009 = tested on: NCI-H2009
Outline: as §1

NCI-H2023 = tested on: NCI-H2023
Outline: as §1

NCI-H2087 = tested on: NCI-H2087
Outline: as §1

NCI-H2126 = tested on: NCI-H2126
Outline: as §1

NCI-H2347 = tested on: NCI-H2347
Outline: as §1

NCI-H23 = tested on: NCI-H23
Outline: as §1

NCI-H3122 = tested on: NCI-H3122
Outline: as §1

NCI-H441 = tested on: NCI-H441
Outline: as §1

NCI-H522 = tested on: NCI-H522
Outline: as §1

NCI-H596 = tested on: NCI-H596
Outline: as §1

NCI-H647 = tested on: NCI-H647
Outline: as §1

NCI-H650 = tested on: NCI-H650
Outline: as §1

NCI-H727 = tested on: NCI-H727
Outline: as §1

NCI-H838 = tested on: NCI-H838
Outline: as §1

## C[C@@H]1CN(CC(=O)Nc2ccc3c(c2)Cc2cccc(-c4cc(=O)cc(N5CCOCC5)o4)c2S3)C[C@H](C)O1 + O=C(CCCCCCC(=O)Nc1ccccc1)NO [Vorinostat] (partner 1 µM)
201T; first compound 0.04 µM
  relative viability: 0.926
201T; first compound 0.1265 µM
  relative viability: 0.942
201T; first compound 0.4 µM
  relative viability: 1.01
201T; first compound 4 µM
  relative viability: 0.81
BEN; first compound 0.04 µM
  relative viability: 0.56
BEN; first compound 0.1265 µM
  relative viability: 0.55
BEN; first compound 0.4 µM
  relative viability: 0.602
BEN; first compound 4 µM
  relative viability: 0.625
EMC-BAC-2; first compound 0.04 µM
  relative viability: 0.397
EMC-BAC-2; first compound 0.1265 µM
  relative viability: 0.468
EMC-BAC-2; first compound 0.4 µM
  relative viability: 0.469
EMC-BAC-2; first compound 4 µM
  relative viability: 0.54
HARA; first compound 0.04 µM
  relative viability: 0.511
HARA; first compound 0.1265 µM
  relative viability: 0.61
HARA; first compound 0.4 µM
  relative viability: 0.445
HARA; first compound 4 µM
  relative viability: 0.436
HCC-44; first compound 0.04 µM
  relative viability: 1.12
HCC-44; first compound 0.1265 µM
  relative viability: 1.01
HCC-44; first compound 0.4 µM
  relative viability: 1.08
HCC-44; first compound 4 µM
  relative viability: 0.966
LCLC-103H; first compound 0.04 µM
  relative viability: 0.743
LCLC-103H; first compound 0.1265 µM
  relative viability: 0.674
LCLC-103H; first compound 0.4 µM
  relative viability: 0.804
LCLC-103H; first compound 4 µM
  relative viability: 0.706
LOU-NH91; first compound 0.04 µM
  relative viability: 0.611
LOU-NH91; first compound 0.1265 µM
  relative viability: 0.945
LOU-NH91; first compound 0.4 µM
  relative viability: 0.847
LOU-NH91; first compound 4 µM
  relative viability: 0.785
NCI-H1395; first compound 0.1265 µM
  relative viability: 0.631
NCI-H1395; first compound 0.4 µM
  relative viability: 0.597
NCI-H1395; first compound 4 µM
  relative viability: 0.812
NCI-H1666; first compound 0.04 µM
  relative viability: 1.01
NCI-H1666; first compound 0.1265 µM
  relative viability: 1.17
NCI-H1666; first compound 0.4 µM
  relative viability: 1.09
NCI-H1666; first compound 4 µM
  relative viability: 0.885
NCI-H1993; first compound 0.04 µM
  relative viability: 0.911
NCI-H1993; first compound 0.1265 µM
  relative viability: 0.78
NCI-H1993; first compound 0.4 µM
  relative viability: 0.626
NCI-H1993; first compound 4 µM
  relative viability: 0.735
NCI-H2009; first compound 0.04 µM
  relative viability: 0.635
NCI-H2009; first compound 0.1265 µM
  relative viability: 0.772
NCI-H2009; first compound 0.4 µM
  relative viability: 0.664
NCI-H2009; first compound 4 µM
  relative viability: 0.497
NCI-H2023; first compound 0.04 µM
  relative viability: 0.578
NCI-H2023; first compound 0.1265 µM
  relative viability: 0.59
NCI-H2023; first compound 0.4 µM
  relative viability: 0.581
NCI-H2023; first compound 4 µM
  relative viability: 0.505
NCI-H2087; first compound 0.04 µM
  relative viability: 0.85
NCI-H2087; first compound 0.1265 µM
  relative viability: 0.587
NCI-H2087; first compound 0.4 µM
  relative viability: 0.663
NCI-H2087; first compound 4 µM
  relative viability: 0.62
NCI-H2126; first compound 0.04 µM
  relative viability: 0.853
NCI-H2126; first compound 0.1265 µM
  relative viability: 0.768
NCI-H2126; first compound 0.4 µM
  relative viability: 0.759
NCI-H2126; first compound 4 µM
  relative viability: 0.701
NCI-H2347; first compound 0.04 µM
  relative viability: 0.564
NCI-H2347; first compound 0.1265 µM
  relative viability: 0.623
NCI-H2347; first compound 0.4 µM
  relative viability: 0.562
NCI-H2347; first compound 4 µM
  relative viability: 0.533
NCI-H23; first compound 0.04 µM
  relative viability: 0.634
NCI-H23; first compound 0.1265 µM
  relative viability: 0.508
NCI-H23; first compound 0.4 µM
  relative viability: 0.537
NCI-H23; first compound 4 µM
  relative viability: 0.589
NCI-H3122; first compound 0.04 µM
  relative viability: 1.01
NCI-H3122; first compound 0.1265 µM
  relative viability: 0.84
NCI-H3122; first compound 0.4 µM
  relative viability: 1
NCI-H3122; first compound 4 µM
  relative viability: 1.29
NCI-H441; first compound 0.04 µM
  relative viability: 0.718
NCI-H441; first compound 0.1265 µM
  relative viability: 0.777
NCI-H441; first compound 0.4 µM
  relative viability: 0.849
NCI-H441; first compound 4 µM
  relative viability: 0.625
NCI-H522; first compound 0.04 µM
  relative viability: 0.539
NCI-H522; first compound 0.1265 µM
  relative viability: 0.696
NCI-H522; first compound 0.4 µM
  relative viability: 0.876
NCI-H522; first compound 4 µM
  relative viability: 0.766
NCI-H596; first compound 0.04 µM
  relative viability: 0.627
NCI-H596; first compound 0.1265 µM
  relative viability: 0.707
NCI-H596; first compound 0.4 µM
  relative viability: 0.642
NCI-H596; first compound 4 µM
  relative viability: 0.567
NCI-H647; first compound 0.04 µM
  relative viability: 0.547
NCI-H647; first compound 0.1265 µM
  relative viability: 0.491
NCI-H647; first compound 0.4 µM
  relative viability: 0.665
NCI-H647; first compound 4 µM
  relative viability: 0.416
NCI-H650; first compound 0.04 µM
  relative viability: 0.364
NCI-H650; first compound 0.1265 µM
  relative viability: 0.386
NCI-H650; first compound 0.4 µM
  relative viability: 0.39
NCI-H650; first compound 4 µM
  relative viability: 0.414
NCI-H727; first compound 0.04 µM
  relative viability: 1.03
NCI-H727; first compound 0.1265 µM
  relative viability: 1.17
NCI-H727; first compound 0.4 µM
  relative viability: 1.15
NCI-H727; first compound 4 µM
  relative viability: 1.13
NCI-H838; first compound 0.04 µM
  relative viability: 0.751
NCI-H838; first compound 0.1265 µM
  relative viability: 0.646
NCI-H838; first compound 0.4 µM
  relative viability: 0.633
NCI-H838; first compound 4 µM
  relative viability: 0.535

## CC(C)Oc1cc(Nc2nc(N[C@@H](C)c3ccc(F)cn3)ncc2Cl)n[nH]1 [AZ23] + N=C(N)NC(=N)NCCc1ccccc1 [Phenformin] (partner 250 µM)
201T; first compound 0.01 µM
  relative viability: 0.539
201T; first compound 0.03162 µM
  relative viability: 0.438
201T; first compound 0.3162 µM
  relative viability: 0.486
BEN; first compound 0.01 µM
  relative viability: 0.292
BEN; first compound 0.03162 µM
  relative viability: 0.282
BEN; first compound 0.3162 µM
  relative viability: 0.268
EMC-BAC-2; first compound 0.01 µM
  relative viability: 0.545
EMC-BAC-2; first compound 0.03162 µM
  relative viability: 0.603
EMC-BAC-2; first compound 0.3162 µM
  relative viability: 0.526
HARA; first compound 0.03162 µM
  relative viability: 0.589
HARA; first compound 0.3162 µM
  relative viability: 0.471
HCC-44; first compound 0.01 µM
  relative viability: 0.231
HCC-44; first compound 0.03162 µM
  relative viability: 0.4
HCC-44; first compound 0.3162 µM
  relative viability: 0.245
LCLC-103H; first compound 0.01 µM
  relative viability: 0.339
LCLC-103H; first compound 0.03162 µM
  relative viability: 0.352
LCLC-103H; first compound 0.3162 µM
  relative viability: 0.333
LOU-NH91; first compound 0.01 µM
  relative viability: 0.713
LOU-NH91; first compound 0.03162 µM
  relative viability: 0.755
LOU-NH91; first compound 0.3162 µM
  relative viability: 0.728
NCI-H1395; first compound 0.03162 µM
  relative viability: 0.483
NCI-H1395; first compound 0.3162 µM
  relative viability: 0.451
NCI-H1666; first compound 0.01 µM
  relative viability: 0.566
NCI-H1666; first compound 0.03162 µM
  relative viability: 0.802
NCI-H1666; first compound 0.3162 µM
  relative viability: 0.538
NCI-H1993; first compound 0.01 µM
  relative viability: 0.501
NCI-H1993; first compound 0.03162 µM
  relative viability: 0.475
NCI-H1993; first compound 0.3162 µM
  relative viability: 0.441
NCI-H2009; first compound 0.01 µM
  relative viability: 0.508
NCI-H2009; first compound 0.03162 µM
  relative viability: 0.539
NCI-H2009; first compound 0.3162 µM
  relative viability: 0.63
NCI-H2023; first compound 0.03162 µM
  relative viability: 0.506
NCI-H2023; first compound 0.3162 µM
  relative viability: 0.481
NCI-H2087; first compound 0.01 µM
  relative viability: 0.645
NCI-H2087; first compound 0.03162 µM
  relative viability: 0.449
NCI-H2087; first compound 0.3162 µM
  relative viability: 0.458
NCI-H2126; first compound 0.01 µM
  relative viability: 0.51
NCI-H2126; first compound 0.03162 µM
  relative viability: 0.539
NCI-H2126; first compound 0.3162 µM
  relative viability: 0.532
NCI-H2347; first compound 0.01 µM
  relative viability: 0.341
NCI-H2347; first compound 0.03162 µM
  relative viability: 0.333
NCI-H2347; first compound 0.3162 µM
  relative viability: 0.455
NCI-H23; first compound 0.03162 µM
  relative viability: 0.89
NCI-H23; first compound 0.3162 µM
  relative viability: 0.783
NCI-H3122; first compound 0.01 µM
  relative viability: 0.387
NCI-H3122; first compound 0.03162 µM
  relative viability: 0.439
NCI-H3122; first compound 0.3162 µM
  relative viability: 0.373
NCI-H441; first compound 0.01 µM
  relative viability: 0.865
NCI-H441; first compound 0.03162 µM
  relative viability: 0.841
NCI-H441; first compound 0.3162 µM
  relative viability: 0.906
NCI-H522; first compound 0.01 µM
  relative viability: 0.711
NCI-H522; first compound 0.03162 µM
  relative viability: 0.662
NCI-H522; first compound 0.3162 µM
  relative viability: 0.656
NCI-H596; first compound 0.01 µM
  relative viability: 0.787
NCI-H596; first compound 0.03162 µM
  relative viability: 0.87
NCI-H596; first compound 0.3162 µM
  relative viability: 0.739
NCI-H647; first compound 0.01 µM
  relative viability: 0.558
NCI-H647; first compound 0.03162 µM
  relative viability: 0.797
NCI-H647; first compound 0.3162 µM
  relative viability: 0.604
NCI-H650; first compound 0.01 µM
  relative viability: 0.432
NCI-H650; first compound 0.03162 µM
  relative viability: 0.461
NCI-H650; first compound 0.3162 µM
  relative viability: 0.466
NCI-H727; first compound 0.01 µM
  relative viability: 0.571
NCI-H727; first compound 0.03162 µM
  relative viability: 0.552
NCI-H727; first compound 0.3162 µM
  relative viability: 0.485
NCI-H838; first compound 0.01 µM
  relative viability: 0.546
NCI-H838; first compound 0.03162 µM
  relative viability: 0.586
NCI-H838; first compound 0.3162 µM
  relative viability: 0.597
